According to paper PMC8190080, “Tanshinones induce tumor cell apoptosis via directly targeting FHIT” (Scientific Reports, 2021):

Target: T1, FHIT (Homo sapiens, UniProt P49789)
T1 construct: GST (N, cleaved yes); made in house; host or cells: E. coli BL21 (DE3)
Test: Cellular MST assay, HEK293T cell lysate containing GFP tagged FHIT
Type: binding
Details: GFP-FHIT in HEK293T cell lysate, 25 °C
Procedure: Ten million 293 cells overexpressing GFP-tagged FHIT or free GFP were lysed in 0.5 mL M-PER mammalian protein extraction reagent (Thermo Fisher Scientific). Cell lysates were diluted in PBS buffer to a final concentration at which the fluorescent signals of the GFP proteins were suitable for the detection of the Monolith NT.115 instrument (NanoTemper Technologies). A single point screening assay was developed against GFP-FHIT protein to find potential binding molecules from compound libraries (L1021,APExBIO). For binding affinity detection, a 10µL protein sample was mixed with 10µL ligand at various concentrations as indicated. And the purified proteins were labeled by Red- NHS kit in accordance with the manufacturer’s protocol (MO-L011, NanoTemper Technologies). Then the mixture solutions were loaded into NT.115 standard coated capillaries or premium coated capillaries (NanoTemper Technologies), and the MST measurements were performed at 25 °C. The fluorescence signal during the thermophoresis was monitored and the change in fluorescence was analyzed by software. The Kd was calculated by fitting a standard binding curve to the series diluted ligands. And data were analyzed by GraphPad Prism 7.0.

T1 sequence (P49789 whole entry): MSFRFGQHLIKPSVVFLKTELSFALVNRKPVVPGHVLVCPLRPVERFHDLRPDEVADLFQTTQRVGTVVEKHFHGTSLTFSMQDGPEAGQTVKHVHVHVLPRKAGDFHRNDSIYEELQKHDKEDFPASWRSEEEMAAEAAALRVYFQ

Kd: 268 ± 42.6 nM
Compound: Cc1c(S(=O)(=O)O)oc2c1C(=O)C(=O)c1c-2ccc2c1CCCC2(C)C [STS, Sodium tanshinone IIA sulfonate]
